From patent US12502380B2, “MrgprX2 antagonists for the treatment of inflammatory disorders” (Dermira, Inc., priority 2019, dated 2025) come the findings set out here.

Molecules are shown by their SMILES.

The target in this experiment is T1, Human MrgprX2 (Homo sapiens, UniProt Q96LB1).
T1 construct: expressed in transfected cells
T1 sequence (Q96LB1 1-330): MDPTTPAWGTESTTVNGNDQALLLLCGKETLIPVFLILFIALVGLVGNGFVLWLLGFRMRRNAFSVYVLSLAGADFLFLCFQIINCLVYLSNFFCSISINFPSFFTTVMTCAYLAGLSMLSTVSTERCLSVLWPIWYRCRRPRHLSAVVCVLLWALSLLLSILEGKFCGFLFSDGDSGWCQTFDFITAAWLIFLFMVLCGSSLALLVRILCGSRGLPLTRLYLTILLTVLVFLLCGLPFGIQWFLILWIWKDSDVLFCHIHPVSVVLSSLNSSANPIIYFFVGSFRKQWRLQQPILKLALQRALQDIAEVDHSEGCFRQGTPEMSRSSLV
Put plainly: Human MrgprX2 antagonist FLIPR intracellular calcium mobilization assay. To be noted: antagonist activity, recombinant hMrgpMRGPRX2 expressing cells, read-out: Human MrgprX2 Antagonist pIC50 (converted). In kind it is cell-based. An excerpt: Potent and selective hMrgpMRGPRX2 compounds have been generated from compounds identified during a high throughput screening (HTS) campaign and followed up with cycles of structure activity based medicinal chemistry efforts. These compounds were characterized in recombinant hMrgpMRGPRX2 expressing cells for their antagonist activity and the potency was confirmed in the human mast cell line LAD-2, where the target is endogenously expressed. The assays used to determine potencies are functional read-out looking at intracellular calcium mobilization using the FLIPR™ technology. In these FLIPR assays, we test the identified compounds using recombinant cellular systems expressing mouse MrgprB2, mouse MrgprA1, gerbil MrgpMRGPRX2 orthologue, Chinese hamster MrgpMRGPRX2 orthologue and cynomolgus monkey MrgpMRGPRX2 orthologue, respectively for orthologue activity.

`CC1(C(=O)Nc2ncc(Cc3ccccc3F)s2)CCN(S(N)(=O)=O)C1` (centres unmarked) [Compound E064]: the IC50 is 631 nM. `C[C@H](O)CN(C)C(=O)Nc1ncc(Oc2cc(F)ccc2C#N)s1` [Compound E195]: the IC50 was 2000 nM. On to `CCN(C[C@H](C)O)C(=O)Nc1ncc(Oc2ccc(C(F)(F)F)cc2)s1` [Compound E161], for which the IC50 was 316 nM. As for `CCN(C[C@H](C)O)C(=O)Nc1ncc(Oc2cncc(C)c2)s1` [Compound E178], the IC50 was 31.6 nM. For `CCN(C[C@H](C)O)C(=O)Nc1ncc(Oc2cc(C#N)ccc2F)s1` [Compound E193], the IC50 is 39.8 nM.

Take `CC(C)C(=O)Nc1ncc(Cc2cc(F)ccc2F)s1` [Compound E093]: the IC50 is 6.31 nM. The result for `C[C@@H](O)CN(C)C(=O)Nc1ncc(Oc2ccccc2)s1` [Compound E148] reads 15.8 nM; that for `CC1(C(=O)Nc2ncc(Cc3cc(F)ccc3F)s2)CCOCC1` [Compound E092, N-[5-[(2,5-difluorophenyl)methyl]thiazol-2-yl]-4-methyl-tetrahydropyran-4-carboxamide], 100 nM; that for `CCN(C[C@H](C)O)C(=O)Nc1nc(C)c(Oc2cc(F)cc(C#N)c2)s1` [Compound E209], 3.16 nM. As to `CC1(C(=O)Nc2ncc(Cc3ccccc3F)s2)COC1` [Compound E016], the IC50 is 3980 nM. For the compound `CN(CC(=O)Nc1ncc(Cc2cccc(F)c2)s1)S(N)(=O)=O` [Compound E067], the IC50 is 10000 nM.

`CC(C(=O)Nc1ncc(Cc2ccccc2F)s1)N1CCOCC1` (centres unmarked) [Compound E009]: the IC50 was 316 nM. In the case of `CC1(C(=O)Nc2ncc(Cc3cccc(F)c3)s2)CCC(=O)N1` (centres unmarked) [Compound E032], the IC50 was 7940 nM.

In the case of `CC(O)CN(CC(F)(F)F)C(=O)Nc1ncc(Cc2cccc(F)c2)s1` (centres unmarked) [Compound E119], the IC50 was 200 nM. Regarding `CC(C(=O)Nc1ncc(Cc2ccccc2F)s1)N1CCCC1` (centres unmarked) [Compound E017], the IC50 is 1260 nM. As to `CC1(C(=O)Nc2ncc(Cc3cc(F)cc(F)c3)s2)COC1` [Compound E047], the IC50 was 25.1 nM.

For `CN(CCO)C(=O)Nc1ncc(Cc2cccc(F)c2)s1` [Compound E132], the IC50 was 2510 nM.

`NS(=O)(=O)N1CCCC[C@@H]1C(=O)Nc1ncc(Cc2cccc(F)c2)s1` [Compound E066]: the IC50 was 31.6 nM.

On to `CC1(C(=O)Nc2ncc(Cc3cccc(Cl)c3)s2)COC1` [Compound E036], for which the IC50 was 316 nM. The result for `C[C@@]1(C(=O)Nc2ncc(Cc3cccc(Cl)c3)s2)CCOC1` (single isomer, unassigned) [Compound E050, N-[5-[(3-chlorophenyl)methyl]thiazol-2-yl]-3-methyl-tetrahydrofuran-3-carboxamide] reads 63.1 nM; that for `CC1(C(=O)Nc2ncc(Cc3ccc(F)cc3)s2)CCOCC1` [Compound E001, N-[5-[(4-fluorophenyl)methyl]thiazol-2-yl]-4-methyl-tetrahydropyran-4-carboxamide], 398 nM. Regarding `C[C@@]1(C(=O)Nc2ncc(Cc3cc(F)cc(F)c3)s2)CCOC1` (single isomer, unassigned) [Compound E052, N-[5-[(3,5-difluorophenyl)methyl]thiazol-2-yl]-3-methyl-tetrahydrofuran-3-carboxamide], the IC50 was 3.98 nM. For the compound `C[C@H](O)CN(C)C(=O)Nc1ncc(Oc2cncc(F)c2)s1` [Compound E176], the IC50 is 50.1 nM.

As for `O=C(Nc1ncc(Cc2cccc(F)c2)s1)N1CCC[C@H]1CO` [Compound E120], the IC50 is 398 nM. For the compound `CS(=O)(=O)N1CCC[C@@H]1C(=O)Nc1ncc(Cc2cccc(F)c2)s1` [Compound E056, (2R)—N-[5-[(3-fluorophenyl)methyl]thiazol-2-yl]-1-methylsulfonyl-pyrrolidine-2-carboxamide], the IC50 is 1580 nM. The result for `CCN(C[C@H](C)O)C(=O)Nc1ncc(Oc2cc(F)ccc2C#N)s1` [Compound E196] reads 316 nM. The result for `CCN(CC(C)O)C(=O)Nc1ncc(Cc2cccc(F)c2)s1` (centres unmarked) [Compound E110] reads 0.501 nM.

With `C[C@H](O)CN(C)C(=O)Nc1ncc(Oc2cccnc2)s1` [Compound E167], the IC50 was 3160 nM.

Take `O=C(Nc1ncc(Cc2cccc(F)c2)s1)N1CC[C@@H](CO)C1` [Compound E113]: the IC50 was 794 nM. With `O=C(Nc1ncc(Cc2cccc(F)c2)s1)N1CCCC1CO` (centres unmarked) [Compound E104], the IC50 was 316 nM. In the case of `Cc1cccc(Cc2cnc(NC(=O)C3(C)CCOCC3)s2)c1` [Compound E024], the IC50 is 398 nM. With `CCN(C[C@H](C)O)C(=O)Nc1ncc(Oc2cccc(Cl)c2)s1` [Compound E153], the IC50 was 0.794 nM. `CC(O)CN(C)C(=O)Nc1ncc(Cc2ccccc2F)s1` (centres unmarked) [Compound E099]: the IC50 is 398 nM. As to `CC(C)(C)OC(=O)N1CCC[C@@H]1C(=O)Nc1ncc(Cc2cccc(F)c2)s1` [Compound E035, tert-butyl (2R)-2-[[5-[(3-fluorophenyl)methyl]thiazol-2-yl]carbamoyl]pyrrolidine-1-carboxylate], the IC50 was 3160 nM.

As to `CCN(C[C@@H](C)O)C(=O)Nc1ncc(Cc2cccc(F)c2)s1` [Compound E118], the IC50 is 25.1 nM.

As to `CC(C)C(=O)Nc1ncc(Oc2ccc(F)cc2)s1` [Compound E074], the IC50 is 10 nM. As to `CCN(C[C@H](C)O)C(=O)Nc1ncc(Oc2ccccc2C#N)s1` [Compound E175], the IC50 was 316 nM. The result for `CC(C)CN(C)C(=O)Nc1ncc(Cc2cccc(F)c2)s1` [Compound E125] reads 7.94 nM; that for `O=C(Nc1ncc(Cc2cccc(F)c2)s1)N1CC(F)(F)C[C@@H]1CO` [Compound E127], 39.8 nM. In the case of `C[C@H](O)CN(C)C(=O)Nc1ncc(Oc2cncc(C#N)c2)s1` [Compound E172], the IC50 was 1580 nM. The result for `C[C@H](O)CN(C)C(=O)Nc1ncc(Cc2cccc(Cl)c2)s1` [Compound E116] reads 31.6 nM. As to `CC(CO)N(C)C(=O)Nc1ncc(Cc2cccc(F)c2)s1` (centres unmarked) [Compound E128], the IC50 was 31.6 nM. Turning to `CCN(C[C@H](C)O)C(=O)Nc1ncc(Oc2ccc(C#N)cc2F)s1` [Compound E190], the IC50 is 6.31 nM. For `CCN(C[C@H](C)O)C(=O)Nc1ncc(Oc2cncc(F)c2)s1` [Compound E158], the IC50 was 1.26 nM. `CC1(C(=O)Nc2ncc(Oc3cccc(F)c3)s2)CCOCC1` [Compound E070, N-[5-(3-fluorophenoxy)thiazol-2-yl]-4-methyl-tetrahydropyran-4-carboxamide]: the IC50 is 5.01 nM. Turning to `CCN(C[C@H](C)O)C(=O)Nc1ncc(Oc2cccc(F)c2C#N)s1` [Compound E199], the IC50 is 251 nM.

As for `CCN(CCO)C(=O)Nc1ncc(Cc2cccc(F)c2)s1` [Compound E115], the IC50 is 251 nM.

For `CCN(C[C@H](C)O)C(=O)Nc1ncc(Cc2cccc(F)c2OC)s1` [Compound E140], the IC50 is 501 nM. With `C[C@H](O)CN(C)C(=O)Nc1ncc(Cc2cccc(F)c2)s1` [Compound E101], the IC50 was 39.8 nM.

Consider `CCN(C[C@H](C)O)C(=O)Nc1ncc(Oc2ccccc2F)s1` [Compound E171], for which the IC50 was 0.794 nM. Take `CC1(C(=O)Nc2ncc(Cc3ccccc3F)s2)CCOC1` (centres unmarked) [Compound E014]: the IC50 is 631 nM. With `C[C@H](O)CN(C)C(=O)Nc1ncc(Cc2ccccc2F)s1` [Compound E102], the IC50 is 251 nM.

For `CC1(C(=O)Nc2ncc(Cc3cccc(F)c3F)s2)CCOCC1` [Compound E095], the IC50 is 158 nM. For the compound `O=C(Nc1ncc(Cc2cccc(F)c2)s1)N1CCOC[C@H]1CO` [Compound E123], the IC50 was 7940 nM. For `C[C@H](O)CN(C)C(=O)Nc1ncc(Oc2cccc(C#N)c2)s1` [Compound E159], the IC50 was 10 nM. Consider `O=C(Nc1ncc(Cc2cccc(F)c2)s1)C1(O)CC1` [Compound E026], for which the IC50 is 2510 nM. With `CCN(C[C@H](C)O)C(=O)Nc1ncc(Oc2cccc(C#N)c2F)s1` [Compound E197], the IC50 was 50.1 nM. `CCN(C[C@H](C)O)C(=O)Nc1ncc(Oc2cccc(C(F)(F)F)c2)s1` [Compound E183]: the IC50 is 3.16 nM. Regarding `CCN(C[C@@H](C)O)C(=O)Nc1ncc(Oc2ccc(F)cc2)s1` [Compound E204], the IC50 is 3.16 nM. The result for `NS(=O)(=O)N1CCC[C@@H]1C(=O)Nc1ncc(Cc2cccc(F)c2)s1` [Compound E057, (2R)—N-[5-[(3-fluorophenyl)methyl]thiazol-2-yl]-1-sulfamoyl-pyrrolidine-2-carboxamide] reads 31.6 nM; that for `CN(C[C@@H](O)C(F)(F)F)C(=O)Nc1ncc(Cc2cccc(F)c2)s1` [Compound E111], 3.16 nM.

Regarding `C[C@@H](O)CN(C)C(=O)Nc1ncc(Oc2cccc(F)c2)s1` [Compound E150], the IC50 was 1.58 nM. Take `CC(C)c1nc2ccc(Oc3ccccc3)cc2[nH]1` [Compound E222, 6-phenoxy-2-(propan-2-yl)-1H-1,3-benzodiazole]: the IC50 was 3980 nM. With `C[C@H](O)CN(C)C(=O)Nc1ncc(Oc2ccc(F)nc2)s1` [Compound E169], the IC50 was 251 nM.

Turning to `CCN(C[C@H](C)O)C(=O)Nc1ncc(Oc2ccc(C(=O)OC)cc2)s1` [Compound E214], the IC50 is 3160 nM.
